Test results as given in US20180179256A1 (priority 2015, published 2018).

Test system: HLA-DR
Assay type: cell-based, human

## RGILKRNSSSSSTDS [5-HUMAN-B, reference compound]
  % Inhibition by HLA-DR blocking Ab: 100%
